Measurements published in PubChem BioAssay (NCI).
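Method: 48-hour compound exposure of cells in 96-well plates, five concentrations, linear interpolation of endpoints. GI50: concentration for 50% inhibition of growth. The concentration for full growth arrest is given as TGI.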

How the values were obtained:
Assay in all cases: NCI-60 cell line screen, 48 h
SK-MEL-28 melanoma = system: SK-MEL-28 melanoma
U251 CNS = system: U251 CNS
MDA-MB-231 breast = system: MDA-MB-231 breast
LOX IMVI melanoma = system: LOX IMVI melanoma
TK-10 renal = system: TK-10 renal
SK-MEL-5 melanoma = system: SK-MEL-5 melanoma
NCI-H460 lung = system: NCI-H460 lung
HT29 colon = system: HT29 colon
DU-145 prostate = system: DU-145 prostate
UO-31 renal = system: UO-31 renal

SMILES	TGI (SK-MEL-28 melanoma)	TGI (U251 CNS)	TGI (MDA-MB-231 breast)	TGI (LOX IMVI melanoma)	TGI (TK-10 renal)	TGI (SK-MEL-5 melanoma)	TGI (NCI-H460 lung)	TGI (HT29 colon)	TGI (DU-145 prostate)	TGI (UO-31 renal)	GI50 (SK-MEL-28 melanoma)	GI50 (U251 CNS)	GI50 (MDA-MB-231 breast)	GI50 (LOX IMVI melanoma)	GI50 (TK-10 renal)	GI50 (SK-MEL-5 melanoma)	GI50 (NCI-H460 lung)	GI50 (HT29 colon)	GI50 (DU-145 prostate)	GI50 (UO-31 renal)
O=C(/C=C/c1cccs1)c1ccccc1Cl	38.8 µM	27.7 µM	> 54.4 µM	32.9 µM	32.3 µM	32.5 µM	40.8 µM	42.5 µM	26.4 µM	17.2 µM	–	–	–	–	–	–	–	–	–	–
CCOC(=O)c1cn(C)c(=S)n2c1nc1ccccc12	> 100 µM	> 100 µM	> 100 µM	> 100 µM	–	> 100 µM	> 100 µM	–	> 100 µM	> 100 µM	–	–	–	–	–	–	–	–	–	–
CCN(CC)c1ccc2cc(-c3nc4ccccc4c(=O)[nH]3)c(=N)oc2c1	> 100 µM	> 100 µM	> 100 µM	> 100 µM	> 100 µM	> 100 µM	> 100 µM	> 100 µM	> 100 µM	> 100 µM	–	–	–	–	–	–	–	–	–	–
Cc1ccc(S(=O)(=O)n2cc(C#N)c(C#N)c2)cc1	30.8 µM	> 100 µM	> 100 µM	52.1 µM	> 100 µM	42 µM	> 100 µM	65.9 µM	> 100 µM	72.2 µM	–	–	–	–	–	–	–	–	–	–
CC(C)C1(O)C(=O)N(c2c(F)c(F)c(F)c(F)c2F)C(=S)N1CCSc1ccccc1 (centres undefined)	30.3 µM	32.1 µM	26.4 µM	30.1 µM	27.9 µM	32.7 µM	38.4 µM	32.5 µM	30.9 µM	28.9 µM	–	–	–	–	–	–	–	–	–	–
Cc1ccc(/C(O)=C/c2nc3ccc([N+](=O)[O-])cc3nc2/C=C(\O)c2ccc(C)cc2)cc1	> 100 µM	> 100 µM	> 100 µM	> 100 µM	> 100 µM	> 100 µM	> 100 µM	> 100 µM	> 100 µM	> 100 µM	–	–	–	–	–	–	–	–	–	–
COC(=O)c1c(-c2ccc(Cl)cc2)cc2c3ccccc3n(C)c2c1C(=O)OC	> 100 µM	> 100 µM	> 100 µM	> 100 µM	> 100 µM	> 100 µM	> 100 µM	> 100 µM	> 100 µM	> 100 µM	–	–	–	–	–	–	–	–	–	–
CCC(CC(C)C)Nc1ccc(NC(CC)CC(C)C)cc1 (centres undefined)	28.1 µM	26.6 µM	33.2 µM	35.1 µM	32.3 µM	28.2 µM	40.9 µM	30.5 µM	82.1 µM	29.3 µM	13.7 µM	13 µM	16.4 µM	14.9 µM	17.7 µM	15 µM	17.5 µM	15.1 µM	26.5 µM	14.8 µM
CO[C@]1(CN2CCN3CCCC[C@@H]3C2)/C=C/C[C@H](C)[C@@H](C)S(=O)(=O)NC(=O)c2ccc3c(c2)N(C[C@@H]2CC[C@H]21)C[C@@]1(CCCc2cc(Cl)ccc21)CO3	3.44 µM	–	3.27 µM	–	6.39 µM	3.11 µM	–	–	6.54 µM	2.93 µM	1.86 µM	–	1.78 µM	–	2.33 µM	1.71 µM	–	–	2.4 µM	1.43 µM
CC(=O)CC(=O)CCC(=O)O	> 100 µM	> 100 µM	–	> 100 µM	> 100 µM	–	> 100 µM	> 100 µM	–	> 100 µM	–	–	–	–	–	–	–	–	–	–
CC(C)(C)OC(=O)n1cc(C2CN(O)C(=O)C23CCC(=O)N3Cc2ccccc2)c2ccccc21 (centres undefined)	–	> 100 µM	> 100 µM	55.3 µM	> 100 µM	> 100 µM	> 100 µM	> 100 µM	> 100 µM	> 100 µM	–	–	–	–	–	–	–	–	–	–
Cc1csc(NC(=NCCN2CCOCC2)Nc2nc(C)cs2)n1	> 100 µM	> 100 µM	–	> 100 µM	–	> 100 µM	> 100 µM	> 100 µM	–	> 100 µM	–	–	–	–	–	–	–	–	–	–
CC(=O)O[C@H]1CC[C@@]2(C)[C@H](CC[C@@H]3[C@@H]2CC[C@]2(C)[C@@H](c4ccc(=O)oc4)C[C@H]4O[C@]342)C1	20.9 µM	4.6 µM	–	7.67 µM	–	1.51 µM	0.878 µM	12.7 µM	–	3.18 µM	–	–	–	–	–	–	–	–	–	–
O=[N+]([O-])c1cccnc1-n1cnc2ccccc21	> 100 µM	> 100 µM	> 100 µM	> 100 µM	> 100 µM	> 100 µM	> 100 µM	> 100 µM	> 100 µM	–	–	–	–	–	–	–	–	–	–	–
